We go through three compounds from patent publication US6083956A, “Optically pure androgen mediator” (Pfizer Inc., priority 1999, dated 2000).

This assay concerns the target T1, recombinant human androgen receptor (hAR) (Homo sapiens, UniProt P10275).
T1 construct: made in house; host or cells: Sf9 insect cells (baculovirus)
The assay is described as follows: Human Androgen Receptor Binding Analysis (competitive binding vs 3H-dihydrotestosterone). The following applies: 1 nM 3H-DHT tracer, hydroxylapatite, one hour at 4° C.

The mark [1] stands for this setting: hAR Binding IC50, baculovirus/Sf9 generated hAR extract.

In general, IC50 refers to the point on the concentration scale where inhibition reaches its midpoint.

Read-outs that look alike come from different tables or passages of the source.

T1 sequence (P10275 whole entry): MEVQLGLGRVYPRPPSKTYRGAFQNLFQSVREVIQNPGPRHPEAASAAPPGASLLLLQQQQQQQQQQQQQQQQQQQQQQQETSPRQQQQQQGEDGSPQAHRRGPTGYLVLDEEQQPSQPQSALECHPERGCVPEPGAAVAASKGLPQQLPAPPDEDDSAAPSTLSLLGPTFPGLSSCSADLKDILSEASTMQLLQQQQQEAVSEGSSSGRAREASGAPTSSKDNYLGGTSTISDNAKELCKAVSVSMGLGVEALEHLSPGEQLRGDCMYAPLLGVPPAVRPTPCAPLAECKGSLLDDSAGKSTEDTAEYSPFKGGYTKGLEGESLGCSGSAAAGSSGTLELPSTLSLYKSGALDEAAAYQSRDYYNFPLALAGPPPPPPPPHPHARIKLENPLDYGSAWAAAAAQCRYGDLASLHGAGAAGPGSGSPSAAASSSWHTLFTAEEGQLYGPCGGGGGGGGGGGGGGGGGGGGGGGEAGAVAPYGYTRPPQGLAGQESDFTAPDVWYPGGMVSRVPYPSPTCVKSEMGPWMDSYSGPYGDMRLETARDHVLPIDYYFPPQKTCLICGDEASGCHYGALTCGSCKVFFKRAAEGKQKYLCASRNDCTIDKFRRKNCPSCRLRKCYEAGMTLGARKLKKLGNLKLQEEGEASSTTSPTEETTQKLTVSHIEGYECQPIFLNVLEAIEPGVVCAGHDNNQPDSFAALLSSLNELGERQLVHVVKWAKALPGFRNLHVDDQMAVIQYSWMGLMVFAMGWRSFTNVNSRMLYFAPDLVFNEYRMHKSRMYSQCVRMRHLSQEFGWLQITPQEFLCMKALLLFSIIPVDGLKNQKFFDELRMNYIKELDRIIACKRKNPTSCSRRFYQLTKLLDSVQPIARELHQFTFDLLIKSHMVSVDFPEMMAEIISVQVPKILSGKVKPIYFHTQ
Method: The following is a brief description of the assay that determines the affinity of a compound for the recombinant human androgen receptor (hAR). Competitive binding analysis is performed on baculovirus/Sf9 generated hAR extracts in the presence or absence of differing concentrations of drug and a fixed concentration of ^3 H-dihydrotestosterone (^3 H-DHT) as tracer. […] Briefly, progressively decreasing concentrations of compounds are incubated in the presence of hAR extract (Chang et al. P.N.A.S. Vol. 89, pp. 5546-5950, 1992), hydroxylapatite and 1 nM ^3 H-DHT for one hour at 4° C. Subsequently, the binding reactions are washed three times to completely remove excess unbound ^3 H-DHT. hAR bound.
^3 H-DHT levels are determined in the presence of compounds (=competitive binding) and compared to levels bound when no competitor is present (=maximum binding). Compound binding affinity to the hAR is expressed as the concentration of compound at which one half of the maximum binding is inhibited.

Regarding `CCC1CCNc2cc3oc(=O)cc(C(F)(F)F)c3cc21` (single isomer, unassigned; (-)) [(-) Enantiomer, (-)-5-ethyl-4-trifluoromethyl-5,6,7,8-tetrahydro-1-oxa-8-aza-anthracen-2-one], the IC50 under setting [1] was found to be 5 nM.

Turning to `CCC1CCNc2cc3oc(=O)cc(C(F)(F)F)c3cc21` (single isomer, unassigned; (+)) [(+) Enantiomer, (+)-5-Ethyl-4-trifluoromethyl-5,6,7,8-tetrahydro-1-oxa-8-aza-anthracen-2-one], the half-maximal inhibitory concentration (IC50) under setting [1] turned out to be 112 nM. As for `CCC1CCNc2cc3oc(=O)cc(C(F)(F)F)c3cc21` (racemic) [Racemate (±), Racemic 5-ethyl-4-trifluoromethyl-5,6,7,8-tetrahydro-1-oxa-8-aza-anthracen-2-one, reference compound], the IC50 (baculovirus/Sf9 generated hAR extract, read-out: hAR Binding IC50) amounted to 35 nM.
